Measurements as given in patent US20220153734A1, “Pyrazolopyridine Compounds For IRE1 Inhibition” (Optikira, LLC, priority 2019, published 2022).

What was measured:
[1] = target: T1, IRE1α (Homo sapiens, UniProt O75460); experiment: Biochemical assay: inhibition of RNase activity of IRE1α; details: enzyme 0.325 nM, substrate 100 nM, 20 minutes
T1 construct: purchased Signal Chem E31-11G
Protocol: Biochemical Assay: Inhibition of RNase Activity of IRE1α
The RNase reactions were performed in 384 well black ProxiPlate-384 Plus plates (PERKIN Elmer) using 50 mM Tris assay buffer with 0.5 mM MgCl2, 10 mM KCl, 0.03% Tween, 2 mM DTT and 1% DMSO. Test compounds were prepared on the day of assay and dispensed using D300 digital dispenser as a 10-point ½ log dilution series in duplicate, normalized to a final DMSO concentration of […]. Test compounds were pre-incubated for 30 min at room temperature with IRE1α kinase (E31-11G from Signal Chem) in 2.5 μL of assay buffer. Then 2.5 μl of assay buffer containing substrate (5′ Alexa Fluor 647-rCrArU rGrUrC rCrGrC rArGrC rGrCrArUrG-Iowa Black RQ quencher 3′) added, giving a final concentration of enzyme of 0.325 nM and of substrate of 100 nM. After 20 minutes incubation at room temperature the reactions were stopped by added 5 μL of 5M urea, incubated at room temperature for 10 minutes and fluorescence measured on a plate reader (EnVision, PerkinElmer). IC50 values calculated by fitting a sigmoidal curve to percent inhibition of control versus compound concentration.

[2] = tested on: ARPE-19 cells stably expressing XBP1 (a.a. 1-376); experiment: Cellular XBP1 splicing assay (NanoLuc luciferase, thapsigargin); assay type: cell-based; details: thapsigargin 150 nM
Protocol: Cellular XBP1 Splicing Assay
ARPE-19 cells stably expressing XBP1 (a.a. 1-376) with nano-luciferase gene sequence linked so it is in frame when XBP1 is spliced, were cultured in F12 media, 10% FBS, 0.044% sodium bicarbonate, 150 μg/ml hygromycin B and seeded for assays at 5,000 cells in 384 well plates in culture media without hygromycin B and incubated at 37° C./5% CO2. After overnight incubation test compounds were added to the cell plate in a 10-point ½ log dilution series in duplicate (final DMSO concentration 0.117%). After further incubation of 30 minutes thapsigargin was added (final concentration 150 nM) and then another 4 hour incubation. A NanoLuc luciferase assay (Promega) was used according to the manufacturer's instructions to detect the luciferase and luminescence measured on a luminometer (EnVision, PerkinElmer). IC50 values calculated by fitting a sigmoidal curve to percent inhibition of control of compound concentration.

T1 sequence (O75460 468-977 limits assumed): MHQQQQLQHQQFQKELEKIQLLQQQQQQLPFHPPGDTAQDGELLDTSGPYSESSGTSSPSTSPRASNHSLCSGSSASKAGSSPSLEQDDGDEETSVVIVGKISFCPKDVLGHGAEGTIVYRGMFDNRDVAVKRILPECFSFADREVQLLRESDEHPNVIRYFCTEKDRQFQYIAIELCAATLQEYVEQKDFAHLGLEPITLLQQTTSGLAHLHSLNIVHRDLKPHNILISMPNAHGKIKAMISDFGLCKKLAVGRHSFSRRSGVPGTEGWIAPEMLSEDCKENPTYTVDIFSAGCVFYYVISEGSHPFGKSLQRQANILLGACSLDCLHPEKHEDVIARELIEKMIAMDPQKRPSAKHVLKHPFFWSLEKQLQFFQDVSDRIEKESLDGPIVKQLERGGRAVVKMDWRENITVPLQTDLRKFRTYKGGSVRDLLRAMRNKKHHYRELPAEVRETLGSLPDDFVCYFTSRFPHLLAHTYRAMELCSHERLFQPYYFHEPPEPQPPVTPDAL

| IC50 [1] [nM] | IC50 ([2]; Homo sapiens, ARPE-19, 4 h) [nM] | IC50 ([2]; 4 hour) [nM] | Compound |
| --- | --- | --- | --- |
| 60 | 160 | – | CC(C)n1nc(-c2cc(F)c(NS(=O)(=O)c3ccccc3Cl)cc2F)c2c(N)ncc(C3=CCC(NC4COC4)CC3)c21 (racemic) [racemic mixture of B10 & B11, N-(4-(4-amino-1-isopropyl-7-(4-(oxetan-3-ylamino)cyclohex-1-en-1-yl)-1H-pyrazolo[4,3-c]pyridin-3-yl)-2,5-difluorophenyl)-2-chlorobenzenesulfonamide] |
| 60 | 3.3 | – | CC(C)n1nc(-c2ccc(NS(=O)(=O)c3cc(Cl)ccc3F)c(F)c2)c2c(N)ncc(C3=CCC(NC4COC4)CC3)c21 (racemic) [racemic mixture of B14 & B15, N-(4-(4-amino-1-isopropyl-7-(4-(oxetan-3-ylamino)cyclohex-1-en-1-yl)-1H-pyrazolo[4,3-c]pyridin-3-yl)-2-fluorophenyl)-5-chloro-2-fluorobenzenesulfonamide] |
| 13 | 94 | – | Cc1ccc(F)c(S(=O)(=O)Nc2ccc(-c3nn(C(C)C)c4c(C5=CCC(NC6COC6)CC5)cnc(N)c34)cc2F)c1 (racemic) [racemic mixture of B16 & B17, N-(4-(4-amino-1-isopropyl-7-(4-(oxetan-3-ylamino)cyclohex-1-en-1-yl)-1H-pyrazolo[4,3-c]pyridin-3-yl)-2-fluorophenyl)-2-fluoro-5-methylbenzenesulfonamide] |
| 26 | 52 | – | CC(C)n1nc(-c2ccc(NS(=O)(=O)c3ccccc3Cl)c(F)c2)c2c(N)ncc(C3=CCC(NC4COC4)CC3)c21 (racemic) [racemic mixture of B56 & B57, N-(4-(4-amino-1-isopropyl-7-(4-(oxetan-3-ylamino)cyclohex-1-en-1-yl)-1H-pyrazolo[4,3-c]pyridin-3-yl)-2-fluorophenyl)-2-chlorobenzenesulfonamide] |
| 61 | 92 | – | CC(C)n1nc(-c2ccc(NS(=O)(=O)c3ccccc3F)c(F)c2)c2c(N)ncc(C3=CCC(NC4COC4)CC3)c21 (racemic) [racemic mixture of B58 & B59, N-(4-(4-amino-1-isopropyl-7-(4-(oxetan-3-ylamino)cyclohex-1-en-1-yl)-1H-pyrazolo[4,3-c]pyridin-3-yl)-2-fluorophenyl)-2-fluorobenzenesulfonamide] |
| 40 | 100 | – | CCn1nc(-c2ccc(NS(=O)(=O)c3ccccc3Cl)c(F)c2)c2c(N)ncc(C3=CCC(NC4COC4)CC3)c21 (racemic) [racemic mixture of B61 & B62, N-(4-(4-amino-1-ethyl-7-(4-(oxetan-3-ylamino)cyclohex-1-en-1-yl)-1H-pyrazolo[4,3-c]pyridin-3-yl)-2-fluorophenyl)-2-chlorobenzenesulfonamide] |
| 2.4 | – | 30 | CC(C)n1nc(-c2ccc(NS(=O)(=O)Cc3ccccc3F)c(F)c2)c2c(N)ncc(C3=CCC(NC4COC4)CC3)c21 (single isomer, unassigned) [Compound B1, N-(4-(4-amino-1-isopropyl-7-(4-(oxetan-3-ylamino)cyclohex-1-en-1-yl)-1H-pyrazolo[4,3-c]pyridin-3-yl)-2-fluorophenyl)-1-(2-fluorophenyl)methanesulfonamide] |
| – | – | 38 | Nc1ncc(C2=CCC(NC3COC3)CC2)c2c1c(-c1ccc(NS(=O)(=O)Cc3ccccc3F)c(F)c1)nn2C1CC1 (single isomer, unassigned) [Compound B20, N-(4-(4-amino-1-cyclopropyl-7-(4-(oxetan-3-ylamino)cyclohex-1-en-1-yl)-1H-pyrazolo[4,3-c]pyridin-3-yl)-2-fluorophenyl)-1-(2-fluorophenyl)methanesulfonamide] |
| – | – | 11 | Nc1ncc(C2=CCC(NC3COC3)CC2)c2c1c(-c1ccc(NS(=O)(=O)Cc3ccccc3F)c(F)c1)nn2C1CC1 (single isomer, unassigned) [Compound B21, N-(4-(4-amino-1-cyclopropyl-7-(4-(oxetan-3-ylamino)cyclohex-1-en-1-yl)-1H-pyrazolo[4,3-c]pyridin-3-yl)-2-fluorophenyl)-1-(2-fluorophenyl)methanesulfonamide] |
| – | – | 170 | CCn1nc(-c2ccc(NS(=O)(=O)Cc3ccccc3Cl)cc2)c2c(N)ncc(C3=CCC(NC4COC4)CC3)c21 (single isomer, unassigned) [Compound B25, N-(4-(4-amino-1-ethyl-7-(4-(oxetan-3-ylamino)cyclohex-1-en-1-yl)-1H-pyrazolo[4,3-c]pyridin-3-yl)phenyl)-1-(2-chlorophenyl)methanesulfonamide] |
| – | – | 220 | CCn1nc(-c2ccc(NS(=O)(=O)c3cc(Cl)ccc3F)c(F)c2)c2c(N)ncc(C3=CCC(NC4COC4)CC3)c21 (single isomer, unassigned) [Compound B39, N-(4-(4-amino-1-ethyl-7-(4-(oxetan-3-ylamino)cyclohex-1-en-1-yl)-1H-pyrazolo[4,3-c]pyridin-3-yl)-2-fluorophenyl)-5-chloro-2-fluorobenzenesulfonamide] |
| – | – | 200 | CC(C)n1nc(-c2ccc(NS(=O)(=O)c3ccccc3Cl)c(F)c2)c2c(N)ncc(C3=CCC(NC4COC4)CC3)c21 (single isomer, unassigned) [Compound B56, N-(4-(4-amino-1-isopropyl-7-(4-(oxetan-3-ylamino)cyclohex-1-en-1-yl)-1H-pyrazolo[4,3-c]pyridin-3-yl)-2-fluorophenyl)-2-chlorobenzenesulfonamide] |
| – | – | 20 | CC(C)n1nc(-c2ccc(NS(=O)(=O)c3ccccc3Cl)c(F)c2)c2c(N)ncc(C3=CCC(NC4COC4)CC3)c21 (single isomer, unassigned) [Compound B57, N-(4-(4-amino-1-isopropyl-7-(4-(oxetan-3-ylamino)cyclohex-1-en-1-yl)-1H-pyrazolo[4,3-c]pyridin-3-yl)-2-fluorophenyl)-2-chlorobenzenesulfonamide] |
| – | 49 | – | COCCN[C@H]1CC[C@H](c2cnc(N)c3c(-c4cc(F)c(NS(=O)(=O)c5cccc(F)c5)cc4F)nn(C(C)C)c32)CC1 [Compound A33, N-(4-(4-amino-1-isopropyl-7-((1r,4r)-4-((2-methoxyethyl)amino)cyclohexyl)-1H-pyrazolo[4,3-c]pyridin-3-yl)-2,5-difluorophenyl)-3-fluorobenzenesulfonamide] |
| – | 44 | – | COCCN[C@H]1CC[C@H](c2cnc(N)c3c(-c4cc(F)c(NS(=O)(=O)c5cc(OC(F)(F)F)ccc5F)cc4F)nn(C(C)C)c32)CC1 [Compound A59, N-(4-(4-amino-1-isopropyl-7-((1r,4r)-4-((2-methoxyethyl)amino)cyclohexyl)-1H-pyrazolo[4,3-c]pyridin-3-yl)-2,5-difluorophenyl)-2-fluoro-5-(trifluoromethoxy)benzenesulfonamide] |
| – | 16 | – | CCCOc1ccc(F)c(S(=O)(=O)Nc2cc(F)c(-c3nn(C(C)C)c4c3c(N)ncc4[C@H]3CC[C@H](NCCOC)CC3)cc2F)c1 [Compound A60, N-(4-(4-amino-1-isopropyl-7-((1r,4r)-4-((2-methoxyethyl)amino)cyclohexyl)-1H-pyrazolo[4,3-c]pyridin-3-yl)-2,5-difluorophenyl)-2-fluoro-5-propoxybenzenesulfonamide] |
| – | 5 | – | COCCN[C@H]1CC[C@H](c2cnc(N)c3c(-c4cc(F)c(NS(=O)(=O)c5cc(Cl)ccc5Cl)cc4F)nn(C(C)C)c32)CC1 [Compound A61, N-(4-(4-amino-1-isopropyl-7-((1r,4r)-4-((2-methoxyethyl)amino)cyclohexyl)-1H-pyrazolo[4,3-c]pyridin-3-yl)-2,5-difluorophenyl)-2,5-dichlorobenzenesulfonamide] |
| – | 6 | – | CCc1ccc(Cl)c(S(=O)(=O)Nc2cc(F)c(-c3nn(C(C)C)c4c3c(N)ncc4[C@H]3CC[C@H](NCCOC)CC3)cc2F)c1 [Compound A62, N-(4-(4-amino-1-isopropyl-7-((1r,4r)-4-((2-methoxyethyl)amino)cyclohexyl)-1H-pyrazolo[4,3-c]pyridin-3-yl)-2,5-difluorophenyl)-2chloro-5-ethylbenzenesulfonamide] |
| – | 13 | – | CC(F)CN[C@H]1CC[C@H](c2cnc(N)c3c(-c4cc(F)c(NS(=O)(=O)c5ccccc5F)cc4F)nn(C(C)C)c32)CC1 (some centres unmarked) [Compound A63, N-(4-(4-amino-7-((1r,4r)-4-((2-fluoropropyl)amino)cyclohexyl)-1-isopropyl-1H-pyrazolo[4,3-c]pyridin-3-yl)-2,5-difluorophenyl)-2-fluorobenzenesulfonamide] |
